In brackets after ≈: the same amount, converted by molar mass. Activity calls are given as the source filed them. No cut-off for these calls is given here.
Tests used:
[1] = Inhibition of yeast alpha-glucosidase; set-up: species or system Saccharomyces cerevisiae
Biomphalaria glabrata = experiment: Molluscicidal activity against Biomphalaria glabrata at 200 ppm; assay type: functional, organism-based

IC50 [1] | Compound | Activity (Biomphalaria glabrata)
280 µg/mL (≈ 692 µM) | COc1ccc(/C=C/c2cc(O)cc(O[C@@H]3O[C@H](CO)[C@@H](O)[C@H](O)[C@H]3O)c2)cc1 | inactive
600 µg/mL (≈ 1430 µM) | COc1ccc(/C=C/c2cc(O)cc(O[C@@H]3O[C@H](CO)[C@@H](O)[C@H](O)[C@H]3O)c2)cc1O [RHAPONTIN] | inactive
